Key:
Type in all cases: in vivo
[1] = system: barnyardgrass (Echinochloa crus-galli); assay: Test G Pre-Emergence Protocol; conditions: Echinochloa crus-galli, pre-emergence, 312 h, evaluated after 13 days; for pest or weed control at 15.625 g/ha: 15.625 g ai/ha; for pest or weed control at 15.625 g/ha / pest or weed control at 250 g/ha: read-out: Barnyardgrass damage rating (100=total damage to plant; 0=no damage to plant); for pest or weed control at 62.5 g/ha: 62.5 g ai/ha, 100=total damage to plant, 0=no damage to plant, read-out: Barnyardgrass damage rating; for pest or weed control at 250 g/ha: 250 g ai/ha
How it was run: (§1)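 One day after sowing, pots are treated with a spray of test compound formulated in acetone/water 50:50 plus 0.5% Tween 20, giving 15.625, 62.5 or 250 g/ha. Evaluation on a 0–100 damage scale follows 13 days of glasshouse growth.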

[2] = system: corn (Zea mays); assay: Test G Pre-Emergence Protocol; conditions: Zea mays, pre-emergence, 312 h, evaluated after 13 days; for plant injury at 15.625 g/ha: 15.625 g ai/ha; for plant injury at 15.625 g/ha / plant injury at 250 g/ha: read-out: Corn damage rating (100=total damage to plant; 0=no damage to plant); for plant injury at 62.5 g/ha: 62.5 g ai/ha, 100=total damage to plant, 0=no damage to plant, read-out: Corn damage rating; for plant injury at 250 g/ha: 250 g ai/ha
How it was run: as §1

[3] = system: giant foxtail (Setaria faberi); assay: Test G Pre-Emergence Protocol; conditions: Setaria faberi, pre-emergence, 312 h, evaluated after 13 days; for pest or weed control at 15.625 g/ha: 15.625 g ai/ha; for pest or weed control at 15.625 g/ha / pest or weed control at 250 g/ha: read-out: Foxtail, Giant damage rating (100=total damage to plant; 0=no damage to plant); for pest or weed control at 62.5 g/ha: 62.5 g ai/ha, 100=total damage to plant, 0=no damage to plant, read-out: Foxtail, Giant damage rating; for pest or weed control at 250 g/ha: 250 g ai/ha
How it was run: as §1

[4] = system: ivy-leaved morning glory (Ipomoea hederacea); assay: Test G Pre-Emergence Protocol; conditions: Ipomoea, pre-emergence, 312 h, evaluated after 13 days; for pest or weed control at 15.625 g/ha: 15.625 g ai/ha; for pest or weed control at 15.625 g/ha / pest or weed control at 250 g/ha: read-out: Morningglory, Ivy-leaved damage rating (100=total damage to plant; 0=no damage to plant); for pest or weed control at 250 g/ha: 250 g ai/ha; for pest or weed control at 62.5 g/ha: 62.5 g ai/ha, 100=total damage to plant, 0=no damage to plant, read-out: Morningglory, Ivy-leaved damage rating
How it was run: as §1

[5] = system: redroot pigweed (Amaranthus retroflexus); assay: Test G Pre-Emergence Protocol; conditions: Amaranthus retroflexus, pre-emergence, 312 h, evaluated after 13 days; for pest or weed control at 15.625 g/ha: 15.625 g ai/ha; for pest or weed control at 15.625 g/ha / pest or weed control at 250 g/ha: read-out: Pigweed, Redroot damage rating (100=total damage to plant; 0=no damage to plant); for pest or weed control at 62.5 g/ha: 62.5 g ai/ha, 100=total damage to plant, 0=no damage to plant, read-out: Pigweed, Redroot damage rating; for pest or weed control at 250 g/ha: 250 g ai/ha
How it was run: as §1

[6] = system: velvetleaf (Abutilon theophrasti); assay: Test G Pre-Emergence Protocol; conditions: Abutilon theophrasti, pre-emergence, 312 h, evaluated after 13 days; for pest or weed control at 15.625 g/ha: 15.625 g ai/ha; for pest or weed control at 15.625 g/ha / pest or weed control at 250 g/ha: read-out: Velvetleaf damage rating (100=total damage to plant; 0=no damage to plant); for pest or weed control at 62.5 g/ha: 62.5 g ai/ha, 100=total damage to plant, 0=no damage to plant, read-out: Velvetleaf damage rating; for pest or weed control at 250 g/ha: 250 g ai/ha
How it was run: as §1

[7] = system: barnyardgrass (Echinochloa crus-galli); assay: Test G Post-Emergence Protocol; conditions: Echinochloa crus-galli, post-emergence, 312 h, read-out: Barnyardgrass damage rating; for pest or weed control at 15.625 g/ha: 15.625 g ai/ha, evaluated after 13 days (100=total damage to plant; 0=no damage to plant); for pest or weed control at 62.5 g/ha: 62.5 g ai/ha; for pest or weed control at 62.5 g/ha / pest or weed control at 250 g/ha: evaluated after 13 days, 100=total damage to plant, 0=no damage to plant; for pest or weed control at 250 g/ha: 250 g ai/ha
How it was run: (§2)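 Scores run 0 (no damage) to 100 (total damage) and were taken 13 days after spraying. Plants had been raised in pots for 8 days under glasshouse control (24/16 °C, 14 h photoperiod, 65% humidity) and then treated at 15.625, 62.5 or 250 g/ha.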

[8] = system: corn (Zea mays); assay: Test G Post-Emergence Protocol; conditions: Zea mays, post-emergence, 312 h, read-out: Corn damage rating; for plant injury at 15.625 g/ha: 15.625 g ai/ha, evaluated after 13 days (100=total damage to plant; 0=no damage to plant); for plant injury at 62.5 g/ha: 62.5 g ai/ha; for plant injury at 62.5 g/ha / plant injury at 250 g/ha: evaluated after 13 days, 100=total damage to plant, 0=no damage to plant; for plant injury at 250 g/ha: 250 g ai/ha
How it was run: as §2

[9] = system: giant foxtail (Setaria faberi); assay: Test G Post-Emergence Protocol; conditions: Setaria faberi, post-emergence, 312 h, read-out: Foxtail, Giant damage rating; for pest or weed control at 15.625 g/ha: 15.625 g ai/ha, evaluated after 13 days (100=total damage to plant; 0=no damage to plant); for pest or weed control at 62.5 g/ha: 62.5 g ai/ha; for pest or weed control at 62.5 g/ha / pest or weed control at 250 g/ha: evaluated after 13 days, 100=total damage to plant, 0=no damage to plant; for pest or weed control at 250 g/ha: 250 g ai/ha
How it was run: as §2

[10] = system: ivy-leaved morning glory (Ipomoea hederacea); assay: Test G Post-Emergence Protocol; conditions: Ipomoea, post-emergence, 312 h, read-out: Morningglory, Ivy-leaved damage rating; for pest or weed control at 15.625 g/ha: 15.625 g ai/ha, evaluated after 13 days (100=total damage to plant; 0=no damage to plant); for pest or weed control at 62.5 g/ha: 62.5 g ai/ha; for pest or weed control at 62.5 g/ha / pest or weed control at 250 g/ha: evaluated after 13 days, 100=total damage to plant, 0=no damage to plant; for pest or weed control at 250 g/ha: 250 g ai/ha
How it was run: as §2

[11] = system: redroot pigweed (Amaranthus retroflexus); assay: Test G Post-Emergence Protocol; conditions: Amaranthus retroflexus, post-emergence, 312 h, read-out: Pigweed, Redroot damage rating; for pest or weed control at 15.625 g/ha: 15.625 g ai/ha, evaluated after 13 days (100=total damage to plant; 0=no damage to plant); for pest or weed control at 62.5 g/ha: 62.5 g ai/ha; for pest or weed control at 62.5 g/ha / pest or weed control at 250 g/ha: evaluated after 13 days, 100=total damage to plant, 0=no damage to plant; for pest or weed control at 250 g/ha: 250 g ai/ha
How it was run: as §2

[12] = system: velvetleaf (Abutilon theophrasti); assay: Test G Post-Emergence Protocol; conditions: Abutilon theophrasti, post-emergence, 312 h, read-out: Velvetleaf damage rating; for pest or weed control at 15.625 g/ha: 15.625 g ai/ha, evaluated after 13 days (100=total damage to plant; 0=no damage to plant); for pest or weed control at 62.5 g/ha: 62.5 g ai/ha; for pest or weed control at 62.5 g/ha / pest or weed control at 250 g/ha: evaluated after 13 days, 100=total damage to plant, 0=no damage to plant; for pest or weed control at 250 g/ha: 250 g ai/ha
How it was run: as §2

SMILES | pest or weed control at 15.625 g/ha [1] [%] | pest or weed control at 62.5 g/ha [1] [%] | pest or weed control at 250 g/ha [1] [%] | plant injury at 15.625 g/ha [2] [%] | plant injury at 62.5 g/ha [2] [%] | plant injury at 250 g/ha [2] [%] | pest or weed control at 15.625 g/ha [3] [%] | pest or weed control at 62.5 g/ha [3] [%] | pest or weed control at 250 g/ha [3] [%] | pest or weed control at 15.625 g/ha [4] [%] | pest or weed control at 250 g/ha [4] [%] | pest or weed control at 15.625 g/ha [5] [%] | pest or weed control at 62.5 g/ha [5] [%] | pest or weed control at 250 g/ha [5] [%] | pest or weed control at 15.625 g/ha [6] [%] | pest or weed control at 62.5 g/ha [6] [%] | pest or weed control at 250 g/ha [6] [%] | pest or weed control at 15.625 g/ha [7] [%] | pest or weed control at 62.5 g/ha [7] [%] | pest or weed control at 250 g/ha [7] [%] | other results
CN1C[C@H](c2cc(C(C)(C)C)ncn2)[C@@H](C(=O)Nc2cccc(F)c2F)C1=O (racemic) [Compound 1667] | 0 | 10 | 20 | 0 | 0 | 0 | 0 | 10 | 20 | 0 | 30 | 0 | 0 | 0 | 0 | 0 | 0 | 0 | 0 | 10 | plant injury at 15.625 g/ha [8]: 0%; plant injury at 62.5 g/ha [8]: 0%; plant injury at 250 g/ha [8]: 0%; pest or weed control at 15.625 g/ha [9]: 0%; pest or weed control at 62.5 g/ha [9]: 0%; pest or weed control at 250 g/ha [9]: 20%; pest or weed control at 15.625 g/ha [10]: 0%; pest or weed control at 62.5 g/ha [10]: 0%; pest or weed control at 250 g/ha [10]: 0%; pest or weed control at 15.625 g/ha [11]: 0%; pest or weed control at 62.5 g/ha [11]: 0%; pest or weed control at 250 g/ha [11]: 0%; pest or weed control at 15.625 g/ha [12]: 0%; pest or weed control at 62.5 g/ha [12]: 0%; pest or weed control at 250 g/ha [12]: 0%
COC(=O)c1cc([C@H]2CN(C)C(=O)[C@@H]2C(=O)Nc2cccc(F)c2F)ccc1F (racemic) [Compound 1678] | 0 | 0 | 0 | 0 | 0 | 0 | 0 | 0 | 0 | 0 | 0 | 0 | 0 | 0 | 0 | 0 | 0 | 0 | 10 | 30 | pest or weed control at 62.5 g/ha [4]: 0%; plant injury at 15.625 g/ha [8]: 0%; plant injury at 62.5 g/ha [8]: 0%; plant injury at 250 g/ha [8]: 0%; pest or weed control at 15.625 g/ha [9]: 0%; pest or weed control at 62.5 g/ha [9]: 10%; pest or weed control at 250 g/ha [9]: 20%; pest or weed control at 15.625 g/ha [10]: 0%; pest or weed control at 62.5 g/ha [10]: 0%; pest or weed control at 250 g/ha [10]: 0%; pest or weed control at 15.625 g/ha [11]: 10%; pest or weed control at 62.5 g/ha [11]: 10%; pest or weed control at 250 g/ha [11]: 30%; pest or weed control at 15.625 g/ha [12]: 0%; pest or weed control at 62.5 g/ha [12]: 0%; pest or weed control at 250 g/ha [12]: 0%
Cc1cc(C)cc([C@H]2CN(C)C(=O)[C@@H]2C(=O)Nc2ccccc2S(C)(=O)=O)c1 (racemic) [Compound 1727] | 30 | 40 | 80 | 0 | 0 | 0 | 50 | 60 | 80 | 0 | 10 | 0 | 0 | 30 | 0 | 0 | 0 | 20 | 70 | 70 | pest or weed control at 62.5 g/ha [4]: 0%; plant injury at 15.625 g/ha [8]: 0%; plant injury at 62.5 g/ha [8]: 0%; plant injury at 250 g/ha [8]: 10%; pest or weed control at 15.625 g/ha [9]: 30%; pest or weed control at 62.5 g/ha [9]: 80%; pest or weed control at 250 g/ha [9]: 80%; pest or weed control at 15.625 g/ha [10]: 0%; pest or weed control at 62.5 g/ha [10]: 30%; pest or weed control at 250 g/ha [10]: 50%; pest or weed control at 15.625 g/ha [11]: 0%; pest or weed control at 62.5 g/ha [11]: 0%; pest or weed control at 250 g/ha [11]: 0%; pest or weed control at 15.625 g/ha [12]: 0%; pest or weed control at 62.5 g/ha [12]: 0%; pest or weed control at 250 g/ha [12]: 10%

From patent US12077503B2, “Substituted cyclic amides and their use as herbicides” (FMC CORPORATION, priority 2015, dated 2024)
